Assay: Antagonist activity at human CXCR3 expressed in L1.2 cells assessed as inhibition of I-TAC-induced cell migration by flow cytometry

Structure (SMILES): CCN(CC)C(=O)[C@@H]1C=C2c3cccc4[nH]cc(c34)C[C@H]2N(C(=O)Nc2ccccc2)C1 [(6aR,9R)-N9,N9-diethyl-N7-phenyl-6,6a,8,9-tetrahydroindolo[4,3-fg]quinoline-7,9(4H)-dicarboxamide]
- IC50: 0.074 µM

From BindingDB's records for doi:10.1016/j.bmcl.2009.09.002 (Novartis Institutes For Biomedical Research, 2009)
